Results on 12 molecules are retold here after US20260199289A1, “USE OF GLYCOGEN METABOLISM INHIBITORS FOR THE TREATMENT OF CANCER” (THE UNIVERSITY OF VERMONT AND STATE AGRICULTURAL COLLEGE, priority 2022, published 2026).

Entries after “also recorded” stand apart in the source; their conditions may differ.

In one assay the test system is ATC xenograft. The following applies: cited from earlier work.
The subject of assay [1] is 8505C cells. Description: Metabolic flux analysis (Seahorse ECAR and OCR). Format: cell-based, human. Conditions: 8505C cells. As to the method:
Metabolic Flux Analysis—Thyroid cells (5.0×10^4) were plated in a 96 well Seahorse culture plate with compounds of interest diluted in 200 μl CTM for 24 hours. Cells were washed with PBS and equilibrated for 1 hour at 37° C. in a non-CO2 incubator with compounds of interest diluted in Seahorse RPMI (supplemented with 11.1 mM glucose, 2 mM glutamine, and 5% serum) before analysis of OCR and ECAR in a Metabolic Flux Analyzer (Seahorse Bioscience, North Billerica, MA 96XP).

The subject of assay [2] is 8505C cells. Description: Reactive oxygen species quantification (H2DCFDA). In kind it is cell-based, human. Conditions: for ROS in CP-treated cells with the exogenous agent: 8505C cells treated with CP-91,149. As to the method: Quantification of Reactive Oxygen Species—Thyroid cells (1.0-2.0×10^4) were seeded in a black 96 well plate in 200 μl CTM and allowed to adhere overnight. Wells were washed with PBS and incubated with or without 25 μM H2DCFDA for 45 minutes at 37° C. in a non-CO2 incubator with compounds of interest diluted in phenol-red free RPMI (supplemented with 2 mM glutamine and 10% charcoal-stripped serum). Wells were washed with PBS and received compounds of interest diluted in phenol-red free, supplemented RPMI and incubated at 37° C. in a SpectraMax M4 Microplate Reader (Molecular Devices) to record fluorescent measurements (Ex/Em=485/535 nm) every 15 minutes overnight. Maximum fluorescence intensity was determined (~6 hours), background signal (—H2DCFDA) was subtracted from each group, and corrected values were normalized to the vehicle control.

The subject of assay [3] is 8505C cells. Kind of assay: Drug synergy by coefficient of drug interaction (SRB assay). In kind it is cell-based, human. Conditions: for drug interaction with 6-AN (coefficient of drug interaction class): combination with 6-AN (PPP inhibition). As to the method:
In Vitro Cell Staining for Measuring Drug Efficacy—Thyroid cells (4.0×10^3) were seeded in 96 well plates with 100 μl CTM and allowed to adhere overnight. 100 μl of CTM containing 2× concentration of compound was overlayed in each well for 48 hours unless otherwise indicated. Each well then received 100 μl of 10% w/v cold trichloroacetic acid (Fisher) and incubated at 4° C. for 1 hour to fix the cells. Each well was rinsed 3× with DI H2O and stained with 100 μl 0.057% w/v sulforhodamine B (SRB, Sigma-Aldrich) for 30 minutes at room temperature in the dark. Wells were washed 4× with 300 μl 1% v/v acetic acid (Fisher), and remaining SRB stain was solubilized with 200 μl of 10 mM Tris buffer, pH 10.5 (Fisher). Absorbance was measured at 564 nm with a Synergy 2 Multi-Detection Microplate Reader (Agilent Technologies) and normalized to a vehicle control. Drug synergy was evaluated using the coefficient of drug interaction (CDI) formula: CDI=AB/(A×B)×100, where AB is the percent remaining cells of an indicated combination treatment, A is the average percent remaining cells of agent 1 alone, and B is the average percent remaining cells of agent 2 alone. […] Hao et al., “Effect of Lumiracoxib on Proliferation and Apoptosis of Human Nonsmall Cell Lung Cancer Cells In vitro,” Chin Med J (Engl) 121:602-607 (2008), which is hereby incorporated by reference in its entirety.

Assay [4] deals with 8505C cells. Description: SRB cell viability assay in ATC cells. In kind it is cell-based, human. Conditions: for cell viability of CP-treated cells with the exogenous agent: 8505C cells treated with CP-91,149. The protocol: In Vitro Cell Staining for Measuring Drug Efficacy—Thyroid cells (4.0×10^3) were seeded in 96 well plates with 100 μl CTM and allowed to adhere overnight. 100 μl of CTM containing 2× concentration of compound was overlayed in each well for 48 hours unless otherwise indicated. Each well then received 100 μl of 10% w/v cold trichloroacetic acid (Fisher) and incubated at 4° C. for 1 hour to fix the cells. Each well was rinsed 3× with DI H2O and stained with 100 μl 0.057% w/v sulforhodamine B (SRB, Sigma-Aldrich) for 30 minutes at room temperature in the dark. Wells were washed 4× with 300 μl 1% v/v acetic acid (Fisher), and remaining SRB stain was solubilized with 200 μl of 10 mM Tris buffer, pH 10.5 (Fisher). Absorbance was measured at 564 nm with a Synergy 2 Multi-Detection Microplate Reader (Agilent Technologies) and normalized to a vehicle control. Drug synergy was evaluated using the coefficient of drug interaction (CDI) formula: CDI=AB/(A×B)×100, where AB is the percent remaining cells of an indicated combination treatment, A is the average percent remaining cells of agent 1 alone, and B is the average percent remaining cells of agent 2 alone. […] Hao et al., “Effect of Lumiracoxib on Proliferation and Apoptosis of Human Nonsmall Cell Lung Cancer Cells In vitro,” Chin Med J (Engl) 121:602-607 (2008), which is hereby incorporated by reference in its entirety. […]

Assay [5] relates to Pancreatic adenocarcinoma cells. Conditions: cited from earlier work.
Another assay has as its system ATC. Conditions: in vitro; cited from earlier work.
In the next assay the test system is HepG2 cells. The following applies: HepG2 cells; cited from earlier work.
The subject of a further assay is 8505C tumors. Kind of assay: 8505C xenograft tumor growth in nude mice. Conditions: intraperitoneal, 50 mg/kg CP-91,149, 10 mg/kg sorafenib, 6-7 days a week. In kind it is in vivo, mouse. As to the method:
Ethics statement and animal modeling—All animal procedures were approved by Institutional Animal Care and Use Committee (IACUC) at the University of Vermont. All animals were maintained in pathogen-free conditions and cared for in accordance with IACUC policies and certification. All surgeries were performed with isoflurane anesthesia. Temperature-controlled post-surgical monitoring was implemented to minimize suffering. Mice carrying anaplastic thyroid tumors were euthanized at designated time points for tumor collection. Signs of ulceration or a maximum individual tumor size of 2000 mm^3 were used as a protocol-enforced endpoint.
Mice were given food and water ad libitum. […] These doses were based on previous reports.

Where [6] appears, read: ATC cell viability, combination with CP-91,149.

As for `O=CC[C@@H](O)[C@H](O)[C@H](O)CO` [2-DG, 2-deoxyglucose], in the assay on ATC xenograft, the lactate production entry is “reduced lactate production” and the tumor size entry is “failed to significantly reduce tumor size”. In addition, the “extracellular acidification rate (ECAR)” value in the assay with 8505C cells [1] is “significantly inhibited”. Besides, the “reactive oxygen species (ROS) levels” value in the assay with 8505C cells [2] (8505C ATC cells) was “only modestly increased ROS levels”. Also, the “ROS levels with excess glucose” value in the assay with 8505C cells [2] (8505C cells) is “only in CP-treated cells”. Also, the “drug interaction with 6-AN (coefficient of drug interaction class)” value with 8505C cells [3] (8505C cells, 48 hours) is “drug antagonism”. For the same molecule, in the assay with 8505C cells [3] (setting [6]), the “CDI values in combination with CP-91,149” value is recorded as about 1.0 and the “drug interaction with CP-91,149 (coefficient of drug interaction class)” value is reported as “drug additivity”. Moreover, in the assay on 8505C cells [4] (8505C cells, 48 hours), the “cell viability with excess (2 mM) pyruvate” value is given as “could be rescued”, the “cell viability with excess (25 mM) glucose” value is recorded as “rescued cell viability” and the “cell viability with pyruvate depletion” value is recorded as “only significantly impacted the 2-DG-treated cells”.
Regarding `O=C(O)C(=O)CBr` [3-BP, 3-bromopyruvic acid], the “drug interaction with CP-91,149 (coefficient of drug interaction class)” value with 8505C cells [3] (setting [6]) is recorded as “failed to achieve synergy”.
Turning to `NC(=O)c1ccc(N)nc1` [6-AN, 6-aminonicotinamide], the “drug interaction with CP-91,149 (coefficient of drug interaction class)” value in the assay with 8505C cells [3] (setting [6]) is listed as “remarkable drug synergy”.
`O=C(N[C@@H](Cc1ccc(F)cc1)C(=O)N1CCC(O)CC1)c1cc2cc(Cl)ccc2[nH]1` [CP-320626, 5-chloro-N-[(2S)-3-(4-fluorophenyl)-1-(4-hydroxypiperidin-1-yl)-1-oxopropan-2-yl]-1H-indole-2-carboxamide]: in assay [5], the cellular metabolism entry was “inhibited cellular respiration, the PPP, anaplerosis, and synthesis of ribose and fatty acids”; the sensitivity of cells entry is given as “sensitive”.
`CC(=O)N[C@@H](CS)C(=O)O` [N-acetylcysteine]: the “ROS in CP-treated cells with the exogenous agent” value in the assay with 8505C cells [2] is listed as “ablated”; in the assay with 8505C cells [2] (listed as N-acetyl cysteine), “attenuated”. For the same molecule, the “cell viability of CP-treated cells with the exogenous agent” value in the assay with 8505C cells [4] (listed as N-acetyl cysteine) is reported as “can rescue ATC cells from CP-mediated loss in cell viability”; in the assay with 8505C cells [4] (listed as NAC) it was “partially rescued”.
In the case of `NC(=O)C1=CN([C@@H]2O[C@H](COP(=O)(O)OP(=O)(O)OC[C@H]3O[C@@H](n4cnc5c(N)ncnc54)[C@H](OP(=O)(O)O)[C@@H]3O)[C@@H](O)[C@H]2O)C=CC1` [NADPH], the “ROS in 2-DG-treated cells with the exogenous agent” value in the assay with 8505C cells [2] (8505C cells treated with 2-DG, replete media) is “reduced ROS in both treatment groups”. Besides, the “ROS in CP-treated cells with the exogenous agent” value in the assay on 8505C cells [2] is “ablated; also recorded: reduced ROS in both treatment groups; also recorded: attenuated”. Also, the “cell viability of 2-DG-treated cells with the exogenous agent” value in the assay with 8505C cells [4] (8505C cells treated with 2-DG, 48 hours, replete media) was “only rescued cell viability in the CP-treated cells”. Further, in the assay with 8505C cells [4], the “cell viability of CP-treated cells with the exogenous agent” value is on record as “partially rescued; also recorded: only rescued cell viability in the CP-treated cells; also recorded: can rescue ATC cells from CP-mediated loss in cell viability”.
On to `Nc1cc(C(F)(F)F)c(-c2cc(N3CCOCC3)nc(N3CCOCC3)n2)cn1` [buparlisib, 5-(2,6-dimorpholin-4-ylpyrimidin-4-yl)-4-(trifluoromethyl)pyridin-2-amine], for which the “drug interaction with CP-91,149 (coefficient of drug interaction class)” value in the assay on 8505C cells [3] (setting [6]) is given as “drug additivity rather than synergy”.
The same measure, in the same setting: for `COc1cccc2c1C(=O)c1c(O)c3c(c(O)c1C2=O)C[C@@](O)(C(=O)CO)C[C@@H]3O[C@H]1C[C@H](N)[C@H](O)[C@H](C)O1` [doxorubicin] the value was “did not achieve synergy”; for `COc1cc2nccc(Oc3ccc(NC(=O)NC4CC4)c(Cl)c3)c2cc1C(N)=O` [lenvatinib, 4-[3-chloro-4-(cyclopropylcarbamoylamino)phenoxy]-7-methoxyquinoline-6-carboxamide], “drug additivity rather than synergy”.
As to `CN(C)C(=N)N=C(N)N` [metformin], the ATC proliferation result with ATC is on record as “limit ATC proliferation in vitro”.
For the molecule `CC(=O)c1c(C)c2cnc(Nc3ccc(N4CCNCC4)cn3)nc2n(C2CCCC2)c1=O` [palbociclib, 6-acetyl-8-cyclopentyl-5-methyl-2-[(5-piperazin-1-ylpyridin-2-yl)amino]pyrido[6,5-d]pyrimidin-7-one], in the assay on 8505C cells [3] (setting [6]), the “drug interaction with CP-91,149 (coefficient of drug interaction class)” value was “did not achieve synergy”.
As for `CNC(=O)c1cc(Oc2ccc(NC(=O)Nc3ccc(Cl)c(C(F)(F)F)c3)cc2)ccn1` [sorafenib, 4-[4-[[4-chloro-3-(trifluoromethyl)phenyl]carbamoylamino]phenoxy]-N-methylpyridine-2-carboxamide], the “synergy with CP-91,149” value in the assay on HepG2 cells is “displayed synergy”. Besides, the tumor growth entry with 8505C tumors is “notably stunted”. Further, in the assay with 8505C cells [3] (8505C cells, 48 hours), the “drug interaction with 6-AN (coefficient of drug interaction class)” value is “drug synergy; also recorded: synergistic” and the “drug interaction with inhibition of glycolysis” value is reported as “not glycolysis”. The “drug interaction with CP-91,149 (coefficient of drug interaction class)” value with 8505C cells [3] (setting [6]) is on record as “high degree of drug synergy; also recorded: profound drug synergy”.
